Assays:
[1] = target: T1, CYP3A4 (Homo sapiens, UniProt P08684); test: CYP inhibition test, pooled human liver microsome, CYP3A4; format: in vitro ADME; settings: hydroxylation of terfenadine
T1 construct: enzyme: pooled human liver microsome 0.2 mg protein/mL; from tissue; host or cells: pooled human liver microsome
Text: (§1) O-de-ethylation of 7-ethoxyresorufin (CYP1A2), methyl-hydroxylation of tolbutamide (CYP2C9), 4′-hydroxylation of mephenyloin (CYP2C19), O-demethylation of dextromethorphan (CYP2D6), and hydroxylation of terfenadine (CYP3A4), which are typical substrate for metabolic reactions of human main CYP5 molecular species (CYP1A2, 2C9, 2C19, 2D6, and 3A4), were adopted as indexes.
(§2) The reaction conditions are as follows: substrate: 0.5 μmol/L of ethoxyresorufin (CYP1A2), 100 μmol/L of tolbutamide (CYP2C9), […] of S-mephenyloin (CYP2C19), 5 μmol/L of dextromethorphan (CYP2D6), and 1 μmol/L of terfenadine (CYP3A4); reaction time; 15 minutes; reaction temperature: 37° C.; enzyme: pooled human liver microsome 0.2 mg protein/mL; test drug concentration: 1, 5, 10, and 20 μmol/L (4 points).
(§3) In a 96-well plate, as a reaction solution, five kinds of substrates, a human liver microsome, and a test drug were added to 50 mmol/L Hepes buffer solution in the aforementioned ratio. A coenzyme NADPH was added to start a metabolic reaction, which is an index. After reacting at 37° C. for 15 minutes, a solution of methanol/acetonitrile (1/1 (v/v)) was added to quench the reaction. After centrifugation at 3000 rpm for 15 minutes, resorufin (CYP1A2 metabolite) in the supernatant was quantitated with a fluorescence multilabel counter, and hydroxylated tolbutamide (CYP2C9 metabolite), 4′-hydroxylated mephenyloin (CYP2C19 metabolite), […], terfenadine in alcohol form (CYP3A4 metabolite) were quantitated with LC/MS/MS.
(§4) The case wherein only DMSO (a solvent which dissolved a drug) was added to a reaction system was defined as a control (100%). When a test drug solution was added, the remaining activity (%) at each concentration was calculated, and then IC50 was calculated with a concentration and an inhibition ratio by an inverse estimation using a logistic model.

[2] = target: PI-3 kinase γ (Homo sapiens, UniProt P48736); test: PI3Kγ inhibitory activity, PI3-kinase HTRF assay (inhibition ratio); format: biochemical; settings: 0.5 h; for inhibition at 50 µM: compound at 50 μM
Summary of the method: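 PI3Kγ preincubated 10 min with compound and PIP2 substrate (MgCl2, DTT), then ATP added for 30 min at room temperature. PIP3 detected by HTRF (665/620 nm ratio) after 18 h. Inhibition ratio at 50 or 10 μmol/L, normalised to no-compound and no-enzyme controls.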

[3] = Metabolic stability test; format: in vitro ADME; settings: human liver microsome 0.5 mg protein/mL, 1 mmol/L NADPH, 37° C.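 Note: 100% equals the compound amount at 0 min reaction.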
Summary of the method: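 Pooled human liver microsomes (0.5 mg protein/mL) incubated with compound and 1 mmol/L NADPH at 37° C. in pH 7.4 Tris buffer for 0 or 30 min. Parent quantified by LC/MS/MS after methanol/acetonitrile quench; value is % remaining at 30 min versus 0 min.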

[4] = target: T2, CYP2C9 (Homo sapiens, UniProt P11712); test: CYP inhibition test, pooled human liver microsome, CYP2C9; format: in vitro ADME; settings: methyl-hydroxylation of tolbutamide
T2 construct: enzyme: pooled human liver microsome 0.2 mg protein/mL; from tissue; host or cells: pooled human liver microsome
Text: as §1, §2, §3, §4

[5] = target: T3, CYP2C19 (Homo sapiens, UniProt P33261); test: CYP inhibition test, pooled human liver microsome, CYP2C19; format: in vitro ADME; settings: 4′-hydroxylation of mephenyloin
T3 construct: enzyme: pooled human liver microsome 0.2 mg protein/mL; from tissue; host or cells: pooled human liver microsome
Text: as §1, §2, §3, §4

T3 sequence (P33261 whole entry): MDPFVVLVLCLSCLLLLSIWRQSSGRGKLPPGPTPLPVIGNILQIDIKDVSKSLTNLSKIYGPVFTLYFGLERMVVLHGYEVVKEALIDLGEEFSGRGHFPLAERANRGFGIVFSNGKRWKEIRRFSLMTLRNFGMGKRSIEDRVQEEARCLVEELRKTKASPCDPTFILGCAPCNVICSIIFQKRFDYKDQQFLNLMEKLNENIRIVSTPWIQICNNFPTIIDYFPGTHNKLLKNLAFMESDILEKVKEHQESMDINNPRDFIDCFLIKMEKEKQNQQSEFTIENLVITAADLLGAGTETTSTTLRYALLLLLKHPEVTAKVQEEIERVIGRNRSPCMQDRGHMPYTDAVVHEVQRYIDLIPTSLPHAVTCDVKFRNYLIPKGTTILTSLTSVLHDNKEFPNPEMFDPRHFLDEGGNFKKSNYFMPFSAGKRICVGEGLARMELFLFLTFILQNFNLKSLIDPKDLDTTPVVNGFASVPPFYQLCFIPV
T2 sequence (P11712 whole entry): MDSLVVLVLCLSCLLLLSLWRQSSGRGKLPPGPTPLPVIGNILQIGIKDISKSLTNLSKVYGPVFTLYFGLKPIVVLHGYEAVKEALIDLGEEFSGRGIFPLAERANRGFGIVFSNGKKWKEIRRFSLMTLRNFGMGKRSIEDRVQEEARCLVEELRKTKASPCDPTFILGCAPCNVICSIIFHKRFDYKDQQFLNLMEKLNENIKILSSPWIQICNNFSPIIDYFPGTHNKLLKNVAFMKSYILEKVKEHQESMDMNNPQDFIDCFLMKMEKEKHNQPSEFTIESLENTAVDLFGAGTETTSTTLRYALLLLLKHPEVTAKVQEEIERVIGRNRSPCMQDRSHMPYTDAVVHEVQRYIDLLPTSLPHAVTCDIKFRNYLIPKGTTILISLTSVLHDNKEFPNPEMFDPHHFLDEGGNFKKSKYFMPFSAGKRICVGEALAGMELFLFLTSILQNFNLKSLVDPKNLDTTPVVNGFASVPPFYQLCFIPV
Sequence of PI-3 kinase γ (P48736 whole entry): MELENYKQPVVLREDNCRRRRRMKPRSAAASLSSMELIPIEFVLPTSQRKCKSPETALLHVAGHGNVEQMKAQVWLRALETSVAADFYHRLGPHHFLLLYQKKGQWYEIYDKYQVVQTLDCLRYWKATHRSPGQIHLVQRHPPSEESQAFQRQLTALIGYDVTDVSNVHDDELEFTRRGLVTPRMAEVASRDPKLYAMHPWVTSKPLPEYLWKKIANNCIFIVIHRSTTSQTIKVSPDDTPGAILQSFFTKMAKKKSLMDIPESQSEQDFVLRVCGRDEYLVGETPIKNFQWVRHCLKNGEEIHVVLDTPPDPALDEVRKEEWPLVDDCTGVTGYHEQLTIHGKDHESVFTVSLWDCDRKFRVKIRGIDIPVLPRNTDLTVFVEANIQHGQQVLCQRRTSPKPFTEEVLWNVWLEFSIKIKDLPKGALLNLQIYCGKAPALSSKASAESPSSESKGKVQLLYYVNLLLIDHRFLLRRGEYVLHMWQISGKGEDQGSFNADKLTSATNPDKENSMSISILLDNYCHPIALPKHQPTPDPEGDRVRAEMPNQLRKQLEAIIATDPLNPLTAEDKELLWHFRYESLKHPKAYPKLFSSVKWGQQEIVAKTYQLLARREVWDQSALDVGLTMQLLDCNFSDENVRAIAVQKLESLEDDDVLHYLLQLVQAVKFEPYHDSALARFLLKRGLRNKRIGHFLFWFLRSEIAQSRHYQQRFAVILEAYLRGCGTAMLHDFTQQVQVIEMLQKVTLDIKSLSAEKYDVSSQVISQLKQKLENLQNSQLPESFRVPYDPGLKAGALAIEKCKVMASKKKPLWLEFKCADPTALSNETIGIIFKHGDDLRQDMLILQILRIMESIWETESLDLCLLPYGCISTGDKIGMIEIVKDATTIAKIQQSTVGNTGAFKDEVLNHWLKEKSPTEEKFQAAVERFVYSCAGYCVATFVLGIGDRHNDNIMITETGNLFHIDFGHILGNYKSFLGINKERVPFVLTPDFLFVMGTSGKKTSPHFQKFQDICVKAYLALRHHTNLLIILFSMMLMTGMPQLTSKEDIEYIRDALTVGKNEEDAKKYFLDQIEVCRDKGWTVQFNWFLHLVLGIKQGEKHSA
T1 sequence (P08684 whole entry): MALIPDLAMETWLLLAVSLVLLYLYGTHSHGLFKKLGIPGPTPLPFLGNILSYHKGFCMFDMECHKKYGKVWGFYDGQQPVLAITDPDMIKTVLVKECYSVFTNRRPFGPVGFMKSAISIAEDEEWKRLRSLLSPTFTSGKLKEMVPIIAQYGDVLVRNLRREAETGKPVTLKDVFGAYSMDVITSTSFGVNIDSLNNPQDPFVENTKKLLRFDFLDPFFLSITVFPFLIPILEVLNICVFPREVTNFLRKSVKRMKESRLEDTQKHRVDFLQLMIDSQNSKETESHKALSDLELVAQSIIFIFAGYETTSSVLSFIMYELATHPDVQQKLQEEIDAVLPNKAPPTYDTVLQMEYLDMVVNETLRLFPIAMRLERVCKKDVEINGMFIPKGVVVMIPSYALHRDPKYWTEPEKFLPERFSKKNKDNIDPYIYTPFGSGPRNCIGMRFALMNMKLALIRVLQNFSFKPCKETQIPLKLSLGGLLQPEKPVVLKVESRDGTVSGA

| IC50 [1] | inhibition at 10 µM ([2]; PI3Kγ, compound at 10 μM) | percentage of the test compound remained after reacting for 30 minutes [3] | IC50 [4] | IC50 [5] | inhibition at 50 µM ([2]; PI3Kγ) | Structure (SMILES) | inhibition at 10 µM ([2]; compound at 10 μmol/L) |
| --- | --- | --- | --- | --- | --- | --- | --- |
| > 20 µM | ≥ 95% | 99.7% | > 20 µM | > 20 µM | – | COc1cc(N2CCc3nc(NC(=O)NCc4cc(=O)[nH]o4)sc3C2)nc(OC)n1 [Compound I-279] | – |
| > 20 µM | – | 98.3% | > 20 µM | > 20 µM | ≥ 95% | CNC(=O)Nc1nc2c(s1)CN(c1cc(Cl)nc(N)n1)CC2 [Compound I-118] | – |
| > 20 µM | – | 98.6% | > 20 µM | > 20 µM | ≥ 95% | CNC(=O)Nc1cc2n(n1)CCN2c1cc(C(=O)N2CCOCC2)cc(-c2ccc(N)nc2)c1 [Compound I-200] | – |
| > 20 µM | – | 92% | > 20 µM | > 20 µM | – | CN1CCc2cc(N3CCn4nc(NC(=O)c5cccnc5)cc43)ccc2C1=O [Compound I-347] | 91% |
| > 20 µM | – | 87.2% | > 20 µM | > 20 µM | 93% | COc1cc(N2CCc3nc(NC(=O)NCC(=O)O)sc3C2)nc(OC)n1 [Compound I-208] | – |

| Structure (SMILES) | IC50 [1] | inhibition at 10 µM ([2]; PI3Kγ, compound at 10 μM) | percentage of the test compound remained after reacting for 30 minutes [3] | IC50 [4] | IC50 [5] | inhibition at 50 µM ([2]; PI3Kγ) | inhibition at 10 µM ([2]; compound at 10 μmol/L) |
| --- | --- | --- | --- | --- | --- | --- | --- |
| CNC(=O)Nc1cc2n(n1)CCN2c1ccc(S(C)(=O)=O)cc1 [Compound I-89] | > 20 µM | – | 93.6% | > 20 µM | > 20 µM | ≥ 95% | – |
| CNC(=O)Nc1nc2c(s1)CN(c1ccnc(OC)n1)CC2 [Compound I-142] | > 20 µM | – | 97.5% | > 20 µM | > 20 µM | ≥ 95% | – |
| CN1CCc2cc(N3CCn4nc(NC(=O)c5ccco5)cc43)ccc2C1=O [Compound I-358] | > 20 µM | – | 88.4% | > 20 µM | > 20 µM | – | ≥ 95% |
